Measurements published in US20170042890A1, “METHODS OF REDUCING DECLINE IN VITAL CAPACITY” (Cytokinetics, Inc., priority 2014, published 2017).

Tested on: patients with ALS
Test: BENEFIT-ALS clinical trial: treatment-emergent adverse events, discontinuations, deaths
Assay type: in vivo, human
Protocol: BENEFIT-ALS was a multi-national, randomized, stratified, double-blind, placebo-controlled, parallel-group study of tirasemtiv in patients with ALS. The study consisted of a screening period, an open-label/lead-in period, and a double-blind treatment period. Following screening, eligible patients received open-label tirasemtiv, 125 mg BID, for 7 days. Patients who tolerated the 7-day lead-in period were randomized in a 1:1 ratio to tirasemtiv or placebo. Over the first 3 weeks of double-blind treatment, patients randomized to tirasemtiv had their TDD up-titrated as follows: 250 mg for 7 days, then 375 mg for 7 days, then 500 mg for 7 days. […] However, in such cases, dose escalation was re-attempted at least one additional time. The highest tolerable tirasemtiv dose for each individual patient was the dose that patient received for the remaining 9 weeks (i.e., the maximum tolerated dose [MTD] phase) of the study. Patients randomized to placebo underwent a corresponding dummy dose titration.
A total of 711 patients were enrolled in the study and began treatment with open-label tirasemtiv 125 mg BID. After the one-week open-label phase, 302 patients were randomized to placebo and 303 to tirasemtiv. Of these randomized patients, 269 in the placebo group and 204 in the tirasemtiv group completed the study, while 33 on placebo and 99 on tirasemtiv prematurely discontinued study drug, primarily due to AEs (12 patients on placebo 78 patients on tirasemtiv) and patient withdrawal of consent (7 placebo, 12 tirasemtiv).
Safety data presented were based on the safety analysis set, defined as all patients who received at least 1 dose of double-blind study drug. Of the 605 randomized patients, 596 (295 placebo, 301 tirasemtiv) received at least 1 dose of double-blind study drug and were included in the safety analysis set. Data for the primary and secondary efficacy endpoints were analyzed with the Modified FAS. This analysis set included all patients who received at least 1 dose of double-blind study drug and had at least 1 efficacy assessment during the double-blind treatment period, and excluded 156 patients who were randomized in blocks containing patients affected by a study drug assignment error in which 58 patients randomized to and treated with double-blind tirasemtiv were dispensed double-blind placebo instead. Based on these criteria, the Modified FAS consisted of 388 patients (210 placebo, 178 tirasemtiv).
An overview of treatment-emergent AEs during the double-blind phase of the study is provided in Table 4, and commonly reported AEs during the double-blind phase are summarized in Table 5. Serious AEs during the double-blind phase of the study were reported for 16 patients (5.4%) in the placebo group and 27 patients (9.0%) in the tirasemtiv group. By the Medical Dictionary for Regulatory […] (MedDRA) system organ class, the most commonly reported SAEs involved respiratory, thoracic and mediastinal disorders (2.0% placebo, 1.3% tirasemtiv). By MedDRA preferred term, AEs that were reported for more than 1 patient included the following: dysphagia (0.3% placebo, 0.7% tirasemtiv), pneumonia (0.3% placebo, 0.7% tirasemtiv), confusional state (0% placebo, 0.7% tirasemtiv), delirium (0% placebo, 0.7% tirasemtiv), and respiratory failure (1.0% placebo, […]).

[1] = double-blind phase, N=301, MedDRA preferred term
[2] = double-blind phase, N=301, NCI CTCAE
[3] = double-blind phase, N=301, listed as tirasemtiv
[4] = double-blind phase, reported for more than 1 patient

SMILES: C#Cc1cnc2nc(O)n(C(CC)CC)c2n1 [Tirasemtiv, 6-ethynyl-1-(pentan-3-yl)-1H-imidazo[4,5-b]pyrazin-2(3H)one]
- Patients who terminated treatment during the first 4 weeks of the double-blind phase (71/97 of early terminations): 73.2%
- Confusional state leading to early discontinuation (double-blind phase): 5.0%
- Dizziness leading to early discontinuation (double-blind phase): 9.3%
- Fatigue leading to early discontinuation (double-blind phase): 5.0%
- Gastrointestinal (GI) AEs, % of patients (double-blind phase): 43.5%
- Gastrointestinal (GI) AEs, No. of patients (double-blind phase): 131
- SAEs: respiratory, thoracic and mediastinal disorders (MedDRA system organ class) (double-blind phase): 1.3%
- % of patients with AE leading to early termination (double-blind phase, N=301): (25.9%)
- % of patients with SAE (double-blind phase, N=301): (9.0%)
- Deaths, % of patients (double-blind phase, N=301): (0.7%)
- Deaths, No. of patients (double-blind phase, N=301): 2
- No. of patients with AE leading to early termination (double-blind phase, N=301): 78
- No. of patients with SAE (double-blind phase, N=301): 27
- AE Asthenia [1]: 15.9%
- AE Confusional state [1]: 11.0%
- AE Constipation [1]: 6.3%
- AE Contusion [1]: 7.3%
- AE Decreased appetite [1]: 10.0%
- AE Diarrhea [1]: 7.3%
- AE Dizziness [1]: 50.8%
- AE Fatigue [1]: 33.2%
- AE Headache [1]: 17.9%
- AE Insomnia [1]: 10.3%
- AE Muscle spasms [1]: 15.0%
- AE Muscular weakness [1]: 11.3%
- AE Nasopharyngitis [1]: 6.3%
- AE Nausea [1]: 21.9%
- AE Respiratory failure [1]: 6.3%
- AE Somnolence [1]: 13.0%
- % of patients with Grade 3 AE [2]: (20.3%)
- % of patients with Grade 4 AE [2]: (3.0%)
- % of patients with Grade 5 AE [2]: (0.7%)
- No. of patients with Grade 3 AE [2]: 61
- No. of patients with Grade 4 AE [2]: 9
- No. of patients with Grade 5 AE [2]: 2
- % of patients with SAE [3]: 9.0%
- Deaths, % of patients [3]: 0.7%
- Serious AE confusional state [4]: 0.7%
- Serious AE delirium [4]: 0.7%
- Serious AE dysphagia [4]: 0.7%
- Serious AE pneumonia [4]: 0.7%
- Serious AE respiratory failure [4]: 0.5%
- No. of patients with any treatment-emergent AE (double-blind phase, safety set N=301): 291
- Patients who prematurely discontinued study drug (of 303 randomized to tirasemtiv): 99
